Reference: patent US10154961B2, “Pomegranate oil for preventing and treating neurodegenerative diseases” (Hadasit Medical Research Services and Development Ltd., priority 2012, dated 2018)

Tested on: fibroblast isolated from TgMHu2ME199K mice
Assay type: cell-based

CCCC\C=C/C=C/C=C\CCCCCCCC(=O)O [punicic acid]
effect on copper toxicity, percentage of cell survival: significantly inhibited the toxic effect of cooper
